PMC6278306, “Anti-Leishmanial and Cytotoxic Activities of a Series of Maleimides: Synthesis, Biological Evaluation and Structure-Activity Relationship” (Molecules, 2018)
≈ marks a conversion by molar mass, not a printed value.

How the values were obtained:
[1] = Cytotoxicity assay (Alamar Blue); type: cell-based; details: human, concentrations 10–0.0032 μg/mL
Experimental: In order to verify the safety of maleimides, they were tested for cytotoxicity against human monocytic leukemia cells (THP1) 50% cytotoxic concentration values represent the concentration of compound required to kill 50% of the THP1 cells were calculated (CC50). The selectivity indices were calculated using the formula SI = CC50 /IC50, against promastigotes. […] SIs of 16 and 42 were greater than 781.3.
(§1) In vitro anti-leishmanial assay. The antileishmanial activity of the compounds was tested in vitro against a culture of L. donovani promastigotes. The promastigotes were grown in RPMI 1640 medium supplemented with 10% fetal calf serum (Gibco Chem. Co., 81 Wyman Street, Waltham, MA, USA) at 26 °C. A three day old culture was diluted to 5 × 10^5 promastigotes/mL. Drug dilutions were prepared directly in cell suspension in 96-well plates. Plates were incubated at 26 °C for 48 h and the growth of Leishmania promastigotes was determined by the Alamar blue assay as described earlier. Standard fluorescence was measured on a Fluostar Galaxy plate reader (BMG Lab Technologies, Offenburg, Germany) at an excitation wavelength of 544 nm and an emission wavelength of 590 nm. Pentamidine and amphotericin B were used as the standard anti-leishmanial agents. IC50 values were computed from dose-response curves as above. The tested compounds were diluted with six concentrations (from 40–0.0128 μg/mL). Cytotoxicity assay. The in vitro cytotoxicity was determined against human monocytic leukemia cells (THP1) with a simple colorimetric method using the dye Alamar Blue. […] Cells were grown to a density between 0.2 and 1 × 10^6 cells/mL. Culture medium was replaced every 2–3 days with fresh growth medium. DMSO was used as the solvent, and the test compounds was with six concentrations from 10–0.0032 μg/mL.
The in vitro cytotoxicity was determined against human monocytic leukemia cells (THP1) with a simple colorimetric method using the dye Alamar Blue, which was reported in the reference (Mikus, J.; Steverding, D. A simple colorimetric method to screen drug cytotoxicity against Leishmania, using the dye Alamar Blue. Parasitol Int. 2000, 48(3),265-269.). THP1 suspensions were grown in RPMI-1640 medium supplemented with 10% FBS, 2 mM glutamine, 50 μg/mL […]
were grown to a density between 0.2 and 1×10^6 cells/mL. Culture medium was replaced every 2-3 days with fresh growth medium. DMSO was used as the solvent, and the test compounds was with six concentrations from 10-0.0032μg/mL.

[2] = tested on: L. donovani promastigotes; assay: In vitro anti-leishmanial assay (Alamar blue, promastigotes); type: cell-based, Leishmania donovani; details: for IC50: Leishmania donovani, 48 h, read-out: L. donvani IC50; for SI: SI = CC50 /IC50, THP1 vs promastigotes; for anti-leishmanial activity, times better than amphotericin B: L. donovani, relative to amphotericin B
Experimental: Anti-leishmanial activity in vitro was described in terms of IC50, which is the effective concentration (μg/mL) required to achieve 50% growth inhibition, with promastigotes in their exponential growth phase.
as §1, with “Pentamidine and amphotericin B were used as the standard anti-leishmanial agents.” left out

β-(1,3)-glucan synthase = tested on: β-(1,3)-glucan synthase; design: method as in PMID 21612375; details: cited from earlier work
[3] = THP1 cells (human monocytic leukemia)

Compound | CC50 [1, 3] [µg/mL] | IC50 [2] [µg/mL] | SI [2] | melting point [°C] | anti-leishmanial activity, times better than amphotericin B [2] | CC50 ([1]; THP1 cells) [µg/mL] | IC50 β-(1,3)-glucan synthase (β-(1,3)-glucan synthase) [µg/mL]
CCCCN1C(=O)C=CC1=O [Compound 1] | > 10 | 0.08 (≈ 0.522 µM) | >125.0 |  |  |  | 
CCCCCN1C(=O)C=CC1=O [Compound 2] | > 10 | 0.36 (≈ 2.15 µM) | >27.8 |  |  |  | 
CCCCCCN1C(=O)C=CC1=O [Compound 3] | > 10 | 0.11 (≈ 0.607 µM) | >90.9 |  |  |  | 
CCCCCCCCN1C(=O)C=CC1=O [Compound 4] | > 10 | 0.27 (≈ 1.29 µM) | >37.0 |  |  |  | 
CCCCCCCCCCCCN1C(=O)C=CC1=O [Compound 5] | > 10 | 2.21 (≈ 8.33 µM) | >4.5 |  |  |  | 
O=C1C=CC(=O)N1Cc1ccccc1 [Compound 6] | 4.56 (≈ 24.4 µM) | 0.08 (≈ 0.427 µM) | 57.0 |  |  |  | 
O=C1C=CC(=O)N1CCc1ccccc1 [Compound 7] | 4.13 (≈ 20.5 µM) | 0.1 (≈ 0.497 µM) | 41.3 |  |  |  | 
O=C1C=CC(=O)N1CCCc1ccccc1 [Compound 8] | 8.25 (≈ 38.3 µM) | 0.11 (≈ 0.511 µM) | 75.0 |  |  |  | 
O=C1C=CC(=O)N1c1ccccc1 [Compound 9] | > 10 | 0.24 (≈ 1.39 µM) | >41.7 |  |  |  | 
Cc1ccc(N2C(=O)C=CC2=O)cc1 [Compound 10] | > 10 | 0.15 (≈ 0.801 µM) | >66.7 |  |  |  | 
O=C1C=CC(=O)N1c1ccc(F)cc1 [Compound 11] | > 10 | 0.32 (≈ 1.67 µM) | >31.3 |  |  |  | 
O=C1C=CC(=O)N1c1ccc(Cl)cc1 [Compound 12] | > 10 | 1.02 (≈ 4.91 µM) | >9.8 |  |  |  | 
Cc1cccc(C)c1N1C(=O)C=CC1=O [Compound 13] | 3.65 (≈ 18.1 µM) | 0.1 (≈ 0.497 µM) | 36.5 | 188.8 to 190.4 |  |  | 
CCc1cccc(CC)c1N1C(=O)C=CC1=O [Compound 14] | 3.89 (≈ 17 µM) | 0.08 (≈ 0.349 µM) | 48.6 | 192.8 to 194.1 |  |  | 
O=C1C=CC(=O)N1c1cc(F)c(F)c(F)c1 [Compound 15] | > 10 | 0.21 (≈ 0.925 µM) |  | 153.4 to 165.6 |  |  | 
CC(C)CN1C(=O)C=CC1=O [Compound 16] | > 10 | < 0.0128 |  | 52.8 to 53.9 | 10 |  | 
O=C1C=CC(=O)N1C1CCCCC1 [Compound 17] | > 10 | 0.26 (≈ 1.45 µM) | >38.5 |  |  |  | 
CCCCCN1C(=O)C=C(C)C1=O [Compound 18] | 7.64 (≈ 42.2 µM) | 0.58 (≈ 3.2 µM) | 13.2 |  |  |  | 
CCCCCCN1C(=O)C=C(C)C1=O [Compound 19] | 5.89 (≈ 30.2 µM) | 0.81 (≈ 4.15 µM) | 7.3 |  |  |  | 
CCCCCCCCN1C(=O)C=C(C)C1=O [Compound 20] | 8.1 (≈ 36.3 µM) | 0.96 (≈ 4.3 µM) | 8.4 |  |  |  | 
CC1=CC(=O)N(Cc2ccccc2)C1=O [Compound 21] | 7.94 (≈ 39.5 µM) | 0.58 (≈ 2.88 µM) | 13.7 |  |  |  | 
CC1=CC(=O)N(CCc2ccccc2)C1=O [Compound 22] | 5.99 (≈ 27.8 µM) | 1.22 (≈ 5.67 µM) | 4.9 |  |  |  | 
CC1=CC(=O)N(c2c(C)cccc2C)C1=O [Compound 23] | > 10 | 13.2 (≈ 61.2 µM) | >0.8 | 190.8 to 192 |  |  | 
CCc1cccc(CC)c1N1C(=O)C=C(C)C1=O [Compound 24] | 4.39 (≈ 18 µM) | 0.55 (≈ 2.26 µM) | 8.0 | 195.8 to 197.3 |  |  | 

Compound | CC50 [1, 3] [µg/mL] | IC50 [2] [µg/mL] | SI [2] | melting point [°C] | anti-leishmanial activity, times better than amphotericin B [2] | CC50 ([1]; THP1 cells) [µg/mL] | IC50 β-(1,3)-glucan synthase (β-(1,3)-glucan synthase) [µg/mL]
CC1=CC(=O)N(c2cc(Cl)cc(Cl)c2)C1=O [Compound 25] |  | 0.34 (≈ 1.33 µM) | 2.4 | 170.8 to 173.2 |  | 0.8 (≈ 3.12 µM) | 
CC1=CC(=O)N(CC(C)C)C1=O [Compound 26] | > 10 | 0.64 (≈ 3.83 µM) | >15.6 |  |  |  | 
CC1=CC(=O)N(C2CCCCC2)C1=O [Compound 27] | 7.15 (≈ 37 µM) | 0.89 (≈ 4.61 µM) | 8.0 | 65.6 to 66.5 |  |  | 
CCCCN1C(=O)C(Cl)=C(Cl)C1=O [Compound 28] |  | 0.47 (≈ 2.12 µM) | >21.3 |  |  | > 10 | 
CCCCCN1C(=O)C(Cl)=C(Cl)C1=O [Compound 29] |  | 0.65 (≈ 2.75 µM) | >15.4 |  |  | > 10 | 
CCCCCCN1C(=O)C(Cl)=C(Cl)C1=O [Compound 30] |  | 0.49 (≈ 1.96 µM) | >20.4 |  |  | > 10 | 
CCCCCCCCN1C(=O)C(Cl)=C(Cl)C1=O [Compound 31] |  | 0.48 (≈ 1.73 µM) | >20.8 |  |  | > 10 | 
O=C1C(Cl)=C(Cl)C(=O)N1CCc1ccccc1 [Compound 32] |  | 1.64 (≈ 6.07 µM) | >6.1 |  |  | > 10 | 
O=C1C(Cl)=C(Cl)C(=O)N1CCCc1ccccc1 [Compound 33] | > 10 | 0.4 (≈ 1.41 µM) | >25.0 |  |  |  | 
O=C1C(Cl)=C(Cl)C(=O)N1c1ccccc1 [Compound 34] |  | 0.76 (≈ 3.14 µM) | >13.2 |  |  | > 10 | 
Cc1ccc(N2C(=O)C(Cl)=C(Cl)C2=O)cc1 [Compound 35] |  | 0.66 (≈ 2.58 µM) | >15.2 |  |  | > 10 | 
O=C1C(Cl)=C(Cl)C(=O)N1c1ccc(F)cc1 [Compound 36] | > 10 | 0.36 (≈ 1.38 µM) | >27.8 |  |  |  | 
O=C1C(Cl)=C(Cl)C(=O)N1c1ccc(Cl)cc1 [Compound 37] |  | 0.59 (≈ 2.13 µM) | >16.9 |  |  | > 10 | 
Cc1cccc(C)c1N1C(=O)C(Cl)=C(Cl)C1=O [Compound 38] |  | 0.45 (≈ 1.67 µM) | >22.2 | 200.8 to 201.6 |  | > 10 | 
CCc1cccc(CC)c1N1C(=O)C(Cl)=C(Cl)C1=O [Compound 39] |  | 0.13 (≈ 0.436 µM) | >76.9 | 204.1 to 205.8 |  | > 10 | 
Cc1c(Cl)cccc1N1C(=O)C(Cl)=C(Cl)C1=O [Compound 40] |  | 0.13 (≈ 0.447 µM) | >76.9 | 162.3 to 164.1 |  | > 10 | 
Cc1ccc(Cl)cc1N1C(=O)C(Cl)=C(Cl)C1=O [Compound 41] |  | 0.11 (≈ 0.379 µM) | >90.9 | 160.1 to 161.4 |  | > 10 | 
Cc1c(N2C(=O)C(Cl)=C(Cl)C2=O)cccc1[N+](=O)[O-] [Compound 42] | > 10 | < 0.0128 |  | 168.8 to 169.9 | 10 |  | 
O=C1C(Cl)=C(Cl)C(=O)N1c1cc(Cl)cc(Cl)c1 [Compound 43] |  | 0.99 (≈ 3.18 µM) | >10.1 |  |  | > 10 | 
CC(C)CN1C(=O)C(Cl)=C(Cl)C1=O [Compound 44] | > 10 | 0.43 (≈ 1.94 µM) | >23.3 | 63.8 to 64.5 |  |  | 
O=C1C(Cl)=C(Cl)C(=O)N1C1CCCCC1 [Compound 45] |  | 0.26 (≈ 1.05 µM) | >38.5 | 67.2 to 68.5 |  | > 10 | 
CCN1C(=O)C=CC1=O [N-ethyl-maleimide] |  |  |  |  |  |  | 8.5 ± 1.1 (≈ 67.9 µM)
CC(C)(C)N1C(=O)C=CC1=O [N-tert-butyl-maleimide] |  |  |  |  |  |  | 13.7 ± 2.3 (≈ 89.4 µM)
N=C(N)c1ccc(OCCCCCOc2ccc(C(=N)N)cc2)cc1 [pentamidine, reference compound] |  | 0.64 (≈ 1.88 µM) |  |  |  |  | 
